Reference: patent publication US20130236416A1, “SURFACE MODIFIED COLLOIDAL PARTICLES” (CLEMSON UNIVERSITY, priority 2012, published 2013)
“And” between values parts separate entries of the source, which are not always exact repeats. Equal entries are not always repeated. Where two headings read alike, the source gives them in different places. Each block holds one molecule with its values, some of them ahead of it.

Experiments:
[1] = cited from earlier work
[2] = Relative fluorescence quantum yield versus reference dye HITCI in methanol; format: physicochemical
Protocol: Absorption spectra were taken using a Perkin-Elmer Lambda 900 UV/VIS/NIR spectrophotometer. Photoluminescence (PL) spectra were collected using a Thermo Oriel xenon arc lamp (Thermo Oriel 66 902) mated with a Thermo Oriel Cornerstone 7 400 1/8m monochromator (Thermo Oriel 7400) and a Horiba Jobin-Yvon MicroHR spectrometer coupled to a Synapse CCD detector. Quantum yields (φ) of the dyes and modified particles were determined relative to the reference dye 1,10,3,3,30,30-hexamethylindotricarbocyanine iodide (HITCI) in methanol, which has a fluorescence quantum yield of φref=0.12, [51,20] employing established procedures.

P. resinovorans CA10 = assay: Proliferation of P. resinovorans CA10 on carbazole-based media; format: cell-based, Pseudomonas resinovorans CA10; conditions: 96 hour incubation
Protocol: Control growth performed with glucose medium (Δ).
The bioavailability of the hydrophobic metabolites is also critical to understanding metabolic enzymes that bind to them[40]. […] FIG. 3 presents the proliferation of P. resinovorans CA10 with both 9H-carbazole and PA/AC particle based media during a 96 hour incubation.

CARDO complex = biological target: T1, CARDO complex (Metapseudomonas resinovorans, UniProt Q8G8B6); assay: Temperature dependence of 9H-carbazole conversion by purified CARDO complex; format: biochemical, Pseudomonas resinovorans CA10; conditions: 5° C.
T1 construct: (HIS)6 (C); made in house; host or cells: Escherichia coli BL21(DE3) Rosetta
T1 sequence (Q8G8B6 whole entry, one chain of several): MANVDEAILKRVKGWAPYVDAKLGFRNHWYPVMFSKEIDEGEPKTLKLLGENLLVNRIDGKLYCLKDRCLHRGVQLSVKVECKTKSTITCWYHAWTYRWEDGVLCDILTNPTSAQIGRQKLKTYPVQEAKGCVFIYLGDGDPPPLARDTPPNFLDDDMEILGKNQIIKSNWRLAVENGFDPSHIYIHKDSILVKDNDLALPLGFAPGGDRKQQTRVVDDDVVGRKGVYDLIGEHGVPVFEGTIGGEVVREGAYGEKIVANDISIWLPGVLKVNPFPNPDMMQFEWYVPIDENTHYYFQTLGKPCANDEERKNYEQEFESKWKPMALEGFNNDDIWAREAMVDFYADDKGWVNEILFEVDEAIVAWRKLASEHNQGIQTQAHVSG
Protocol: Purified CARDO complex activity was monitored using a modified enzymatic assay previously described [H. Nojiri, et al. Structure of the terminal oxygenase component of angular dioxygenase, carbazole 1,9a-dioxygenase. Journal of Molecular Biology, 351(2):355-370, 2005.]. The purified enzymes CARDO-F, CARDO-O and CARDO-R were incubated in 20 μL Buffer D (25 mM Tris-HCl pH 7.5 and 1 mM NADH) containing 1 mM carbazole dissolved in DMSO at varying temperatures from 30° C. to 5° C. An aliquot was removed from the reaction at the indicated times and the absorbance of the reaction was determined with a NanoDrop spectrophotometer (Thermo Scientific) at 295 nm.

- relative fluorescence quantum yield φ [2]: 0.036±0.002
SMILES: CC1(C)C(/C=C/C=C/C=C/C=C2\N(CCCCS(=O)(=O)O)c3ccc4ccccc4c3C2(C)C)=[N+](CCCCS(=O)(=O)[O-])c2ccc3ccccc3c21 [ICG, Indocyanine green]
- yield of triplet formation through S1-T1 intersystem-crossing ([1]; free ICG in an aqueous albumin solution): 11%
- yield of triplet formation through S1-T1 intersystem-crossing ([1]; free ICG in water): 14%
- fluorescence quantum yield of free ICG in water ([1]; water, ICG concentration ca. 2.7×10^−3 mol·dm^−3): ca. 4×10^−5

SMILES: CN1C(=CC=CC=CC=CC2=[N+](C)c3ccccc3C2(C)C)C(C)(C)c2ccccc21.[I-] [HITCI, 1,10,3,3,30,30-hexamethylindotricarbocyanine iodide]
- fluorescence quantum yield φref ([1]; reference dye in methanol): 0.12

SMILES: c1ccc2c(c1)[nH]c1ccccc12 [9H-carbazole]
- growth of P. resinovorans CA10 on the substrate-based medium (P. resinovorans CA10): consistent growth
- conversion of carbazole by purified CARDO complex (CARDO complex): significantly retarded

- relative fluorescence quantum yield φ [2]: 0.044±0.004 and 0.044
SMILES: CC1(C)C(/C=C/C=C/C=C/C=C2/N(CCCN=[N+]=[N-])c3ccc4ccccc4c3C2(C)C)=[N+](CCCCS(=O)(=O)[O-])c2ccc3ccccc3c21 [azICG, 4-(2-(1E,3E,5E,7E)-7-[3-(3-Azidopropyl)-1,1-Dimethyl-1,3-Dihydro-2H-Benzo[e]Indol-2-Ylidene]-1,3,5-Heptatrienyl-1,1-Dimethyl-1H-Benzo[e]Indolium-3-yl)-1-Butanesulfonate]
